Experimental data from PMC10026756.
Where two headings read alike, the source gives them in different places.

Experiments:
[1] = system: HCT-116 colon cancer cell line; assay: MTT assay, in vitro cytotoxicity against HCT-116; type: cell-based; conditions: read-out: IC50, in vitro cytotoxicity against HCT116 cell line
Experimental: The target compounds were evaluated for their anticancer activity against HCT-116 colon cancer cell line in which both c-Met and VEGFR-2 are overexpressed.[54]^,[55] […] The half maximal inhibitory concentration (IC50) was calculated for each compound (Table 1).
(§1) To scrutinise the cytotoxicity of the target compounds on colorectal cancer and normal cells, MTT assay was carried out against HCT-116 and WI38 cell lines, respectively.

[2] = molecular target: c-Met (Homo sapiens, UniProt P08581); assay: In vitro c-Met tyrosine kinase inhibition assay
Sequence of c-Met (P08581 25-1390): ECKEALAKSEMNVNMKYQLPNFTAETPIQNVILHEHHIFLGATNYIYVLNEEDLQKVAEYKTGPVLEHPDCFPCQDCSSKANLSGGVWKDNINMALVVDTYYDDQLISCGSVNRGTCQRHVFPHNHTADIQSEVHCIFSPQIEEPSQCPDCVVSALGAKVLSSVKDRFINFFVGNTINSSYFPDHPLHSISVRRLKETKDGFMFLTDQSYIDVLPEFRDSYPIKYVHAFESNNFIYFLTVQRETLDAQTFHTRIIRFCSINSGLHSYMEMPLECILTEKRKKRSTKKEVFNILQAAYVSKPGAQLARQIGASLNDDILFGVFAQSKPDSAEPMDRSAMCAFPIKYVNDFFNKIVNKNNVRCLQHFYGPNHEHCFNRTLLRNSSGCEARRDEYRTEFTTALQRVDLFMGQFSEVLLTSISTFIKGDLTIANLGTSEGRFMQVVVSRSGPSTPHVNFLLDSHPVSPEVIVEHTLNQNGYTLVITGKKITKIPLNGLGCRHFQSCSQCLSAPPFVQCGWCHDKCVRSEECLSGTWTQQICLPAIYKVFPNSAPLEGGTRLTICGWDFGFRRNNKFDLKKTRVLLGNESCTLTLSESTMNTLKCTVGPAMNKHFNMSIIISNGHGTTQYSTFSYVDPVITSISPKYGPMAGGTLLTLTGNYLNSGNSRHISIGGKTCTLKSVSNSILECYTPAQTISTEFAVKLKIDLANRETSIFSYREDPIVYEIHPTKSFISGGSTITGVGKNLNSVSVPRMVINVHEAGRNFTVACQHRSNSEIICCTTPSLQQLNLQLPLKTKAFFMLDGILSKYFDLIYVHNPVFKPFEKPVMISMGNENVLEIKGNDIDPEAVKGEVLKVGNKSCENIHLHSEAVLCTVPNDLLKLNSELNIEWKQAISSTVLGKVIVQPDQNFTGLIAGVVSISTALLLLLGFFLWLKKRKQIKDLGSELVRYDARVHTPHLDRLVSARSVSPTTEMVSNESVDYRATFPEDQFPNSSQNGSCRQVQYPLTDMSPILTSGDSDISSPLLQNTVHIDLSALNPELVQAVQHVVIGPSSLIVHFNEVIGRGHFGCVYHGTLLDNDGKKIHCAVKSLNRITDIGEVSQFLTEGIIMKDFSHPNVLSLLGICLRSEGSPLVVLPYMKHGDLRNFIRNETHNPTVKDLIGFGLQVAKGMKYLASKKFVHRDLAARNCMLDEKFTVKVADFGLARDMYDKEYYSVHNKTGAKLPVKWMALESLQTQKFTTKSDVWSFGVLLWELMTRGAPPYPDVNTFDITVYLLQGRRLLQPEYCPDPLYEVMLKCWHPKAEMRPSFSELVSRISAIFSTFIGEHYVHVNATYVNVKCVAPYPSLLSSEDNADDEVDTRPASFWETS

[3] = molecular target: VEGFR-2 (Homo sapiens, UniProt P35968); assay: In vitro VEGFR-2 tyrosine kinase inhibition assay (BPS KDR Assay Kit)
Sequence of VEGFR-2 (P35968 20-1356): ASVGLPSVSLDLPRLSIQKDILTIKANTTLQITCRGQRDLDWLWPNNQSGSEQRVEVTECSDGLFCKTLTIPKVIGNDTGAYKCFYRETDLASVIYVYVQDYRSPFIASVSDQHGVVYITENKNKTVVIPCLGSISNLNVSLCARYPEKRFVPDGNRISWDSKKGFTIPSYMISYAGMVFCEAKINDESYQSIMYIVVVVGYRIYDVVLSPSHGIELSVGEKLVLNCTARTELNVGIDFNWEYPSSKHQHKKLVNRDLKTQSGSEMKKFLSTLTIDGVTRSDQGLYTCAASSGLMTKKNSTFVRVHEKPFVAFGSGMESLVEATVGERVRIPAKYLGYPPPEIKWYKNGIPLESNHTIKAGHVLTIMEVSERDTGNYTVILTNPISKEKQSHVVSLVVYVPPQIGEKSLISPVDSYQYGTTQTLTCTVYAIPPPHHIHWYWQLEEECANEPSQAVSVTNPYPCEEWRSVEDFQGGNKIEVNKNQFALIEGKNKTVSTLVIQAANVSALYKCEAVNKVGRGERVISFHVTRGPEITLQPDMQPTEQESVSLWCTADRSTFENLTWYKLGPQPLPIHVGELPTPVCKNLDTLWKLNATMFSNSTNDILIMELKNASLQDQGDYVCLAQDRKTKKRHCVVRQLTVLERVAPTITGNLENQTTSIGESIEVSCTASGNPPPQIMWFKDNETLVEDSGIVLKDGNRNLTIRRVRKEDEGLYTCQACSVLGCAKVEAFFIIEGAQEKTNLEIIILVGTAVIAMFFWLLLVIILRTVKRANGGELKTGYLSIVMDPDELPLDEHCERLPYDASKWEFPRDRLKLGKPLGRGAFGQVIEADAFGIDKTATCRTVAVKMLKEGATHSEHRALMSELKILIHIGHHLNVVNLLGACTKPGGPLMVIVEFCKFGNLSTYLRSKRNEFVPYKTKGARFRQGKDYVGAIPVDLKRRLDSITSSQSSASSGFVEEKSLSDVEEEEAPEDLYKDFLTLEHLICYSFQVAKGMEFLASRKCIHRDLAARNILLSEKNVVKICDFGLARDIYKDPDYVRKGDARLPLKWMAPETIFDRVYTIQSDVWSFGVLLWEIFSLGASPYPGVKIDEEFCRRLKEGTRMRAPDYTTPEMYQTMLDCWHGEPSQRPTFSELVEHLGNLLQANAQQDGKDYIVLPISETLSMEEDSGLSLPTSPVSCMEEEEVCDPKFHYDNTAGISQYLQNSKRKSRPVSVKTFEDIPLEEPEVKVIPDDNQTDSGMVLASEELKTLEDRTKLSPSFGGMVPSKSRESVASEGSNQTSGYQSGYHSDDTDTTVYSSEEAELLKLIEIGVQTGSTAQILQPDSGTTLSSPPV

[4] = MTT assay, in vitro toxicity against normal cells; type: cell-based; conditions: human, WI38 normal cells; MTT assay, WI38; read-out: IC50, in vitro cytotoxicity against WI38 normal cell line
Experimental: (§2) To scrutinise the safety of target compounds on normal cells, compounds 4b and 4e were selected to evaluate their cytotoxic activity against WI38 normal cell line (Table 2).
as §1

[5] = system: WI38 normal cell line; assay: MTT assay, in vitro toxicity against normal cells; type: cell-based; conditions: HCT-116 versus WI38
Experimental: as §2, §1

[6] = system: HCT-116 colon cancer cell line; assay: Cell cycle analysis; type: cell-based; conditions: HCT-116, treated at IC50 concentration, 24 h
Experimental: Aiming to further study the mechanism of the target compounds, the cell cycle arrest experiment of 4b and 4e blocking the cell cycle of HCT-116 was carried out using Annexin V-FITC/PI staining (Table 4 and Figure 8).[56]
(§3) The effects of both 4b and 4e on progress of cell cycle and induction of apoptosis in […] cells were carried out using Annexin V-FITC Apoptosis Detection Kit (BioVision Research Products, Mountain View, CA) (see Supplementary Data)[8].

[7] = system: HCT-116 cells; assay: Apoptosis assay, Annexin V-FITC/PI staining; type: cell-based; conditions: HCT-116, treated at IC50 concentration, 24 h
Experimental: Compared to the control group, the number of both early and late apoptotic cells of target compounds 4b and 4e was increased.
as §3

[8] = Homo sapiens, HCT-116, MTT assay

| Compound | melting point | IC50 [2] | c-Met %inh ([2]; conc 0.01 (unit not given)) | c-Met %inh ([2]; conc 0.1 (unit not given)) | c-Met %inh ([2]; conc 1 (unit not given)) | c-Met %inh ([2]; conc 10 (unit not given)) | IC50 [3] | VEGFR-2 %inh ([3]; conc 0.01 (unit not given)) | VEGFR-2 %inh ([3]; conc 0.1 (unit not given)) | VEGFR-2 %inh ([3]; conc 1 (unit not given)) | VEGFR-2 %inh ([3]; conc 10 (unit not given)) | IC50 [1, 8] | also measured |
| --- | --- | --- | --- | --- | --- | --- | --- | --- | --- | --- | --- | --- | --- |
| O=C(Cn1c(=O)[nH]c2ccccc2c1=O)NCC(=O)N/N=C/c1ccco1 [Compound 4d, (E)-2-(2,4-Dioxo-1,4-dihydroquinazolin-3(2H)-yl)-N-[2-(2-[furan-2-ylmethylene]hydrazineyl)-2-oxoethyl]acetamide] |  |  |  |  |  |  |  |  |  |  |  | 10.8 ± 0.57 µM |  |
| O=C(Cn1c(=O)[nH]c2ccccc2c1=O)NCc1ccccc1 [Compound 2b, N-Benzyl-2-(2,4-dioxo-1,4-dihydroquinazolin-3(2H)-yl)acetamide] | 298 to 299 °C |  |  |  |  |  |  |  |  |  |  | 16 ± 0.85 µM |  |
| CN(C)C(=O)Cn1c(=O)[nH]c2ccccc2c1=O [Compound 2d, 2-(2,4-Dioxo-1,4-dihydroquinazolin-3(2H)-yl)-N,N-dimethylacetamide] | 218 to 220 °C |  |  |  |  |  |  |  |  |  |  | 47.5 ± 2.51 µM |  |
| O=C(Cn1c(=O)[nH]c2ccccc2c1=O)NCc1n[nH]c(=S)n1-c1ccccc1 [Compound 4j, 2-(2,4-Dioxo-1,4-dihydroquinazolin-3(2H)-yl)-N-[(4-phenyl-5-thioxo-4,5-dihydro-1H-1,2,4-triazol-3-yl)methyl]acetamide] |  |  |  |  |  |  |  |  |  |  |  | 18.9 ± 1 µM |  |
| O=C(Cn1c(=O)[nH]c2ccccc2c1=O)NCC(=O)N/N=C1\C(=O)Nc2ccccc21 [Compound 4f, (Z)-2-[2,4-Dioxo-1,4-dihydroquinazolin-3(2H)-yl]-N-[2-oxo-2-(2-(2-oxoindolin-3-ylidene)hydrazineyl)ethyl]acetamide] |  |  |  |  |  |  |  |  |  |  |  | 44.1 ± 2.33 µM |  |
| CCOC(=O)CNC(=O)Cn1c(=O)[nH]c2ccccc2c1=O [Compound 2g, Ethyl [2-(2,4-dioxo-1,4-dihydroquinazolin-3(2H)-yl)acetyl]glycinate] |  |  |  |  |  |  |  |  |  |  |  | 12.5 ± 0.66 µM |  |
| O=C(Cn1c(=O)[nH]c2ccccc2c1=O)N1CCCCC1 [Compound 2e, 3-(2-Oxo-2-(piperidin-1-yl)ethyl)quinazoline-2,4(1H,3H)-dione] | 204 °C |  |  |  |  |  |  |  |  |  |  | 38 ± 2.01 µM |  |
| O=C(Cn1c(=O)[nH]c2ccccc2c1=O)N1CCOCC1 [Compound 2f, 3-(2-Morpholino-2-oxoethyl)quinazoline-2,4(1H,3H)-dione] | 254 to 255 °C | 0.161 ± 0.007 µM | 22.84% | 44.08% | 70.59% | 88.98% | 0.21 ± 0.009 µM | 18.54% | 43.39% | 68.26% | 85.96% | 5.4 ± 0.29 µM |  |
| COc1cc2nccc(Oc3ccc(NC(=O)C4(C(=O)Nc5ccc(F)cc5)CC4)cc3)c2cc1OC [Cabozantinib, reference compound] |  |  |  |  |  |  |  |  |  |  |  | 16.4 ± 0.86 µM | IC50 [4]: 44.7 ± 2.65 µM; %G0–G1 [6]: 43.12%; %G2/M [6]: 24.72%; %S [6]: 32.16%; %Necrosis [7]: 3.63%; Apoptosis %Early [7]: 12.52%; Apoptosis %Late [7]: 19.61%; Apoptosis %Total [7]: 32.13% |
| NNC(=O)CNC(=O)Cn1c(=O)[nH]c2ccccc2c1=O [Compound 3, 2-(2,4-Dioxo-1,4-dihydroquinazolin-3(2H)-yl)-N-(2-hydrazineyl-2-oxo-ethyl)acetamide] | 296 to 298 °C |  |  |  |  |  |  |  |  |  |  | 24.3 ± 1.28 µM |  |
| O=C(Cn1c(=O)[nH]c2ccccc2c1=O)Nc1ccccc1 [Compound 2a, 2-(2,4-Dioxo-1,4-dihydroquinazolin-3(2H)-yl)-N-phenylacetamide] |  |  |  |  |  |  |  |  |  |  |  | 15.1 ± 0.8 µM |  |
| O=C(Cn1c(=O)[nH]c2ccccc2c1=O)NC1CCCCC1 [Compound 2c, N-Cyclohexyl-2-(2,4-dioxo-1,4-dihydroquinazolin-3(2H)-yl)acetamide] |  | 0.084 ± 0.004 µM | 27.36% | 55.94% | 73.28% | 92.28% | 0.052 ± 0.002 µM | 35.32% | 56.18% | 76.46% | 88.96% | 4.69 ± 0.25 µM |  |

Now from value to compound, other results behind:

| melting point | IC50 [2] | c-Met %inh ([2]; conc 0.01 (unit not given)) | c-Met %inh ([2]; conc 0.1 (unit not given)) | c-Met %inh ([2]; conc 1 (unit not given)) | c-Met %inh ([2]; conc 10 (unit not given)) | IC50 [3] | VEGFR-2 %inh ([3]; conc 0.01 (unit not given)) | VEGFR-2 %inh ([3]; conc 0.1 (unit not given)) | VEGFR-2 %inh ([3]; conc 1 (unit not given)) | VEGFR-2 %inh ([3]; conc 10 (unit not given)) | Compound | IC50 [1, 8] | also measured |
| --- | --- | --- | --- | --- | --- | --- | --- | --- | --- | --- | --- | --- | --- |
|  | 0.245 ± 0.011 µM | 17.87% | 35.84% | 70.09% | 86.83% | 0.297 ± 0.013 µM | 18.58% | 40.45% | 60.74% | 82.49% | O=C(Cn1c(=O)[nH]c2ccccc2c1=O)NCc1n[nH]c(=S)o1 [Compound 4h, 2-(2,4-Dioxo-1,4-dihydroquinazolin-3(2H)-yl)-N-[(5-thioxo-4,5-dihydro-1,3,4-oxadiazol-2-yl)methyl]acetamide] | 6.99 ± 0.37 µM |  |
| 284 to 286 °C | 0.271 ± 0.012 µM | 20.56% | 34.11% | 65.69% | 85.71% | 0.103 ± 0.005 µM | 27.96% | 52.07% | 70.58% | 88.15% | Cc1cc(C)n(C(=O)CNC(=O)Cn2c(=O)[nH]c3ccccc3c2=O)n1 [Compound 4g, N-[2-(3,5-Dimethyl-1H-pyrazol-1-yl)-2-oxoethyl]-2-(2,4-dioxo-1,4-dihyd-roquinazolin-3(2H)-yl)acetamide] | 3.7 ± 0.2 µM |  |
| 290 to 292 °C |  |  |  |  |  |  |  |  |  |  | COc1ccc(/C=N/NC(=O)CNC(=O)Cn2c(=O)[nH]c3ccccc3c2=O)cc1 [Compound 4c, (E)-2-(2,4-Dioxo-1,4-dihydroquinazolin-3(2H)-yl)-N-[2-(2-[4-methoxy-benzylidene]hydrazineyl)-2-oxoethyl]acetamide] | 31.8 ± 1.68 µM |  |
| 287 to 290 °C |  |  |  |  |  |  |  |  |  |  | O=C(Cn1c(=O)[nH]c2ccccc2c1=O)NCC(=O)NNC(=S)Nc1ccccc1 [Compound 4i, 2-(2,4-Dioxo-1,4-dihydroquinazolin-3(2H)-yl)-N-[2-oxo-2-(2-[phenylcar-bamothioyl]hydrazineyl)ethyl]acetamide] | 9.2 ± 0.49 µM |  |
|  | 0.063 ± 0.003 µM | 27.49% | 58.65% | 82.51% | 93.15% | 0.035 ± 0.002 µM | 38.24% | 60.12% | 78.48% | 90.09% | O=C(Cn1c(=O)[nH]c2ccccc2c1=O)NCC(=O)N/N=C/c1ccc([N+](=O)[O-])cc1 [Compound 4b, (E)-2-(2,4-Dioxo-1,4-dihydroquinazolin-3(2H)-yl)-N-[2-(2-[4-nitrobenz-ylidene]hydrazineyl)-2-oxoethyl]acetamide] | < 1 µM | IC50 ([1]; MTT assay): 0.734 ± 0.04 µM; IC50 [4]: 18.4 ± 1.09 µM; cytotoxic activity against HCT-116 colon cancer cells, times more than WI38 normal cells [5]: 25 times; %G0–G1 [6]: 39.59%; %G2/M [6]: 9.34%; %S [6]: 51.07%; %Necrosis [7]: 4.53%; Apoptosis %Early [7]: 15.28%; Apoptosis %Late [7]: 26.41%; Apoptosis %Total [7]: 41.69% |
|  | 0.069 ± 0.003 µM | 28.94% | 55.05% | 80.41% | 92.94% | 0.082 ± 0.004 µM | 33.05% | 50.29% | 73.09% | 86.83% | O=C(Cn1c(=O)[nH]c2ccccc2c1=O)NCC(=O)NN=C1CCCCC1 [Compound 4e, N-[2-(2-Cyclohexylidenehydrazineyl)-2-oxoethyl]-2-(2,4-dioxo-1,4-dihydroquinazolin-3(2H)-yl)acetamide] | 1.41 ± 0.07 µM | IC50 [4]: 10.6 ± 0.62 µM; cytotoxic activity against HCT-116 colon cancer cells, times more than WI38 normal cells [5]: 7.5 times; %G0–G1 [6]: 44.60%; %G2/M [6]: 8.51%; %S [6]: 46.89%; %Necrosis [7]: 2.28%; Apoptosis %Early [7]: 26.76%; Apoptosis %Late [7]: 12.02%; Apoptosis %Total [7]: 38.78% |
| 325 °C |  |  |  |  |  |  |  |  |  |  | O=C(Cn1c(=O)[nH]c2ccccc2c1=O)NCC(=O)N/N=C/c1ccccc1 [Compound 4a, (E)-N-[2-(2-Benzylidenehydrazineyl)-2-oxoethyl]-2-(2,4-dioxo-1,4-dihy-droquinazolin-3(2H)-yl)acetamide] | 36.9 ± 1.95 µM |  |
